Test results reported in ChEMBL document CHEMBL1201862, “PubChem BioAssay data set” (2004).
Calls of active or inactive are those of the source.

Legend:
[1] = molecular target: T1, High affinity choline transporter 1 (Homo sapiens, UniProt Q9GZV3); experiment: human choline transporter blockers, potency – cell-based, 5-point CRC, membrane potential dye, dose response (AID 504840); assay type: functional
T1 sequence (Q9GZV3 whole entry): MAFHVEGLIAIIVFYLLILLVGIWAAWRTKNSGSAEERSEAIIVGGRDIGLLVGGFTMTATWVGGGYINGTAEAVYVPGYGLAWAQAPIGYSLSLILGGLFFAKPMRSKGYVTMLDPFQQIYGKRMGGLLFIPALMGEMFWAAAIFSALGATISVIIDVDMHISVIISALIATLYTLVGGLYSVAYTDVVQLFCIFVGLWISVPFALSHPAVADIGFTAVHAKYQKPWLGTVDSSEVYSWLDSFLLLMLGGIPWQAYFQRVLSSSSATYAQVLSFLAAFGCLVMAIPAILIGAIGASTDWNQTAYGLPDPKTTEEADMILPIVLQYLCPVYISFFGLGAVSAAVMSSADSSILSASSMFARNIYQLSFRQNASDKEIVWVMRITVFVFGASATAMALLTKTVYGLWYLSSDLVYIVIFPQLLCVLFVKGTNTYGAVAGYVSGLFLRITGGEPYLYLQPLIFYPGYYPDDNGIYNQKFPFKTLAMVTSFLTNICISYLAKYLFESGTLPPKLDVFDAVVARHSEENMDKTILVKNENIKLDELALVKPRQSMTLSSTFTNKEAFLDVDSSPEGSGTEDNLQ

[2] = molecular target: T2, Protein skinhead-1 (Caenorhabditis elegans, UniProt P34707); assay type: functional
T2 sequence (P34707 whole entry): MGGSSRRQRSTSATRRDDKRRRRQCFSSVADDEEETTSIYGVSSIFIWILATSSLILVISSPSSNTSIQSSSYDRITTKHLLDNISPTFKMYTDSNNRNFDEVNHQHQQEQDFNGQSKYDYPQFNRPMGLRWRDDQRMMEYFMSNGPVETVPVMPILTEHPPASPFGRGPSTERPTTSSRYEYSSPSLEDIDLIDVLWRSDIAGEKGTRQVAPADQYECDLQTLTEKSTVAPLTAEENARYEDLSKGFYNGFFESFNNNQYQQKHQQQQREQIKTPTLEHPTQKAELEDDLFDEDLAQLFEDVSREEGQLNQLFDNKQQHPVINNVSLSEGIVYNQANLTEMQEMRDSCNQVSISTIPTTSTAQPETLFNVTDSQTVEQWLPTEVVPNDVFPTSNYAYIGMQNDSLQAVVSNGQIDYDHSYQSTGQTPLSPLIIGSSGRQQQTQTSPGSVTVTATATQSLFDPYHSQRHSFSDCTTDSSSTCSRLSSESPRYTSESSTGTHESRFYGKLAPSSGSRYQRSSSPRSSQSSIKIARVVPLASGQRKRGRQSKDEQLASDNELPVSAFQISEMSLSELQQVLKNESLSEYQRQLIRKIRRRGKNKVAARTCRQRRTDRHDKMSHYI

[3] = cells; assay type: functional, cell-based
[4] = cells; assay type: functional, cell-based; remark: listed apart in the source
[5] = Trypanosoma cruzi growth suppression in host cells – NIH3T3 host cells, beta-gal luminescence, confirmation (AID 2044); assay type: functional, cell-based;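 also: intracellular parasites grown in NIH/3T3 mouse fibroblasts as host cells; luminescent beta-galactosidase reporter signal from transgenic T. cruzi replicating inside host cells; inhibitors lower the luminescence signal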
[6] = NIH3T3 cell viability loss – ATP luminescence, mouse fibroblasts, counter-screen, dose response (AID 2010); assay type: functional, cell-based;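 also: cells exposed to compound for about 90 hours before reading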
[7] = Luminescence Cell-Based Dose Retest to Confirm Inhibitors of Cancer Stem Cells. [Related pubchem assays (depositor defined):AID2717, AID2721]; assay type: functional; conditions: Homo sapiens
[8] = molecular target: FAD-linked sulfhydryl oxidase ALR (Homo sapiens, UniProt P55789); experiment: ALR-catalysed DTT oxidation blockers – biochemical, H2O2 detection, luminescence, cherry-pick, dose response (AID 493248)
[9] = microbe, parasite or virus in culture; assay type: functional; conditions: Mycobacterium tuberculosis
[10] = molecular target: T3, Polyadenylate-binding protein 1 (Homo sapiens, UniProt P11940); experiment: MLLE binding blockers, Cy5 peptide tracer – biochemical, fluorescence polarization, Cy5-PAM2 peptide, secondary, miRNA deadenylation inhibitor project, dose response (AID 602260); assay type: functional; conditions: read-out: IC50_Mean
[11] = molecular target: T3, Polyadenylate-binding protein 1; experiment: MLLE domain peptide-binding blockers, IC50 – biochemical, fluorescence polarization, FITC-PAM2 peptide, dose response (AID 602259); assay type: functional; conditions: read-out: IC50_Mean
[12] = tested on: Streptococcus sp. 'group A'; experiment: Streptococcus pyogenes SK(-)GAS viability under kanamycin – luminescence, BacTiterGlo, confirmation, counter-screen for streptokinase expression inhibitor project, dose response (AID 1900); assay type: functional, organism-based
[13] = molecular target: T4, Streptokinase A (Streptococcus pyogenes serotype M1, UniProt P10520); experiment: viability-normalized secreted streptokinase activity reduction – plasminogen activation absorbance, OD405, dose response (AID 1914); assay type: functional, Streptococcus pyogenes M1 GAS;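 also: secreted streptokinase activity via plasminogen activation per viability signal from cell pellet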
T4 sequence (P10520 whole entry): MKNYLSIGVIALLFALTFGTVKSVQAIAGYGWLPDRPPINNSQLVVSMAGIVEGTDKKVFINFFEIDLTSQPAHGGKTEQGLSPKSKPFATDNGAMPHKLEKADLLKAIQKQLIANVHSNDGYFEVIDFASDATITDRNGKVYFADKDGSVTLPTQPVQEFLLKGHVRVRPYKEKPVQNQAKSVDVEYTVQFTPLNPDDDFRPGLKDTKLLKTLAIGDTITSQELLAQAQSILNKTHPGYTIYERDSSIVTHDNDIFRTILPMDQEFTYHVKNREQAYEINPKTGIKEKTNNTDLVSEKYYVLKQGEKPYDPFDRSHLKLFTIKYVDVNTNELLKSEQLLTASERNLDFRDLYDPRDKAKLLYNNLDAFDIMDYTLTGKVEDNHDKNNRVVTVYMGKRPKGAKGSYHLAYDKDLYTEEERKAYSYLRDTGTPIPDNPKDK

[14] = viability of PTEN-deleted HCT116 cells – cell-based, HCT116 PTEN knockout, dose response (AID 1047); assay type: functional;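 also: HCT116 colon tumor cells with PTEN knocked out; cells exposed to compound for 60 hours before readout; potency for loss of cell viability measured by luminescence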
[15] = viability of HCT116 lacking mutant beta-catenin – cell-based, human colon tumor, dose response (AID 1045); assay type: functional;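 also: HCT116 colon tumor cells with beta catenin knocked out; cells exposed to compound for 60 hours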
[16] = tested on: Streptococcus; experiment: GAS UMAA2166 growth inhibition – luminescence, BacTiterGlo, counter-screen for streptokinase expression inhibitor project, dose response (AID 1915); assay type: functional, organism-based;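 also: potency for reduction of bacterial viability or growth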
[17] = tested on: INS1; experiment: INS-1E survival protection against cytokine death – cell-based, luminescence, retest, dose response (AID 449756); assay type: functional; conditions: Rattus norvegicus;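 also: cell death triggered by IL-1 beta plus TNF-alpha plus IFN-gamma mixture; protective hits raise ATP signal compared with cytokine alone wells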
[18] = molecular target: T5, Rac GTPase-activating protein 1 (Homo sapiens, UniProt Q9H0H5); experiment: blockers of MgcRacGAP-driven Rac1 GTP hydrolysis – biochemical, ADP Hunter fluorescence, primary and confirmatory, confirmation (AID 624330); assay type: functional
T5 sequence (Q9H0H5 whole entry): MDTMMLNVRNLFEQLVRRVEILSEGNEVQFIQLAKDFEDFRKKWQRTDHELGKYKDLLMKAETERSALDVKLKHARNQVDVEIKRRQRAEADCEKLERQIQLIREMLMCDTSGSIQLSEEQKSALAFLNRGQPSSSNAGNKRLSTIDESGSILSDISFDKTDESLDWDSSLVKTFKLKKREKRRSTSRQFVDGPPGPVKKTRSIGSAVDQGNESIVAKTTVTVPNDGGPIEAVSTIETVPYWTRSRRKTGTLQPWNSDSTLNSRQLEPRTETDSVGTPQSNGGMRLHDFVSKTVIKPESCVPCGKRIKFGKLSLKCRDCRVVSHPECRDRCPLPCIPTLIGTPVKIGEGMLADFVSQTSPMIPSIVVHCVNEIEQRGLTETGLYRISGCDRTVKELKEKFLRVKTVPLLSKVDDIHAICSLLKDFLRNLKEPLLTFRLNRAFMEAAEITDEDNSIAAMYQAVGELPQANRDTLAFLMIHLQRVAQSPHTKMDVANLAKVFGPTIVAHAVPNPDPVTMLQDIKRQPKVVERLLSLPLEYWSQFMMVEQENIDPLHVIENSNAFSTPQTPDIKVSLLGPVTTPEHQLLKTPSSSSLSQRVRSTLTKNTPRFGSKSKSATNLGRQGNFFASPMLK

[19] = reduction of Shn3 3'UTR-driven luciferase in osteoblasts – cell-based, Clone20 osteoblasts, firefly luciferase, cherry-picked, dose response (AID 624132); assay type: functional;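 also: firefly luciferase luminescence from reporter carrying the Shn3 3'UTR in osteoblasts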
[20] = non-specific 3'UTR reporter inhibition in Clone20-Shn3RL – cell-based, Renilla luciferase, cherry-picked, counter-screen for Shn3 inhibitor project, dose response (AID 624133); assay type: functional
[21] = molecular target: Paired box protein Pax-8 (Homo sapiens, UniProt Q06710); experiment: PAX8 transcriptional activity inhibition in RMG-I – RMG-I cells, luciferase, cherry-pick, dose response (AID 687027); assay type: functional, cell-based;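 also: luciferase reporter driven by Pax8 target thyroperoxidase promoter measured by SteadyGlo luminescence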
[22] = OVCAR-3 cell viability loss – plate reader, dry powder samples, PAX8 inhibitor project, dose response (AID 743044); assay type: functional, cell-based

Chain of FAD-linked sulfhydryl oxidase ALR (P55789 whole entry): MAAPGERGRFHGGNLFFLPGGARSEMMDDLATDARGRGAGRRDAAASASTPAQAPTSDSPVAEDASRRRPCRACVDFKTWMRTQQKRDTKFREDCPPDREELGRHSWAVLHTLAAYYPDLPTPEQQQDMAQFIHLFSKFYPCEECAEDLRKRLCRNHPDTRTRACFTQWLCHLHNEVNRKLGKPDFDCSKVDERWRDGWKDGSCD
T3 sequence (P11940 whole entry, the tested form may be a part): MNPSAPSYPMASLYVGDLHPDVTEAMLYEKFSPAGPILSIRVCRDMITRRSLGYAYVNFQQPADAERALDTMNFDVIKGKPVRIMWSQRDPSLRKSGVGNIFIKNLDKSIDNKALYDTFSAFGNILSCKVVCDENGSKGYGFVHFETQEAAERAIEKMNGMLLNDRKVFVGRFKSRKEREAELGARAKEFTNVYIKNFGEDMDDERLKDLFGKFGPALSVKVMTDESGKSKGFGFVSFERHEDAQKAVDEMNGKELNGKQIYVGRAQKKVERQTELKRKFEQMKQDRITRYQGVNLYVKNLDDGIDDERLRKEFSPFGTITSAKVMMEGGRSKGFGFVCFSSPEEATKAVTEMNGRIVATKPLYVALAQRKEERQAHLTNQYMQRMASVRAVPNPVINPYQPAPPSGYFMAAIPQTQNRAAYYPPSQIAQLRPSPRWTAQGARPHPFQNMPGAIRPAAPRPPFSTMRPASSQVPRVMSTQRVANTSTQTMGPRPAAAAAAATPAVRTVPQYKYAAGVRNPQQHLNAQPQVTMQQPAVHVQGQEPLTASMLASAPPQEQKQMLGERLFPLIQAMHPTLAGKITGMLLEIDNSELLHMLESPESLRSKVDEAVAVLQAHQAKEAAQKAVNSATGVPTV
Chain of Paired box protein Pax-8 (Q06710 whole entry): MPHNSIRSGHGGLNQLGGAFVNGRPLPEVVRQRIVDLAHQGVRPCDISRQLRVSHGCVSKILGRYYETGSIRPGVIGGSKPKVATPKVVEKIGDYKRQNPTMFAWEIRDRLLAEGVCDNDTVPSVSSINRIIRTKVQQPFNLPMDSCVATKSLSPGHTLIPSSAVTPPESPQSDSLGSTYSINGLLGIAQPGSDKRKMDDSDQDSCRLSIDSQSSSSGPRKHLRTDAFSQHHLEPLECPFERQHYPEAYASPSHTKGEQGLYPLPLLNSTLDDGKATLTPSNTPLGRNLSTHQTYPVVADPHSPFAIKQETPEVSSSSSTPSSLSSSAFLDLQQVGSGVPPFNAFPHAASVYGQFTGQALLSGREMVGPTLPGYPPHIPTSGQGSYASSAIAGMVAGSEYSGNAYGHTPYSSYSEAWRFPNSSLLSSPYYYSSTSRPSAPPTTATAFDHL

CC#CCN(CC#CC)S(=O)(=O)c1ccc(-n2cnnn2)c(OC)c1
IC50 [1]: 3.16 µM (active)

c1ccc(CSc2ccc(-c3ccco3)nn2)cc1
IC50 [2]: > 100 µM (inactive)

CCCS(=O)(=O)N1CCC(C(=O)NCc2cccnc2)CC1
IC50 [2]: > 100 µM (inactive)

O=C(NC1=NCCS1)c1cccc(NC(=O)c2ccco2)c1
EC50 [3]: > 350 µM (not active)
EC50 [4]: > 350 µM (not active)

CCCCOC(=O)c1ccc(NC(=O)/C=C/c2cccs2)cc1
IC50 [2]: > 100 µM (inactive)

Cc1ccc(NC(=S)N(Cc2cccs2)Cc2cc3cccc(C)c3nc2O)cc1
EC50 [3]: > 350 µM (not active)
EC50 [4]: > 350 µM (not active)

CCN1CCN(CCCOc2ccc(-c3ccccc3)cc2)CC1
EC50 [3]: > 350 µM (not active)
EC50 [5]: 799 nM (active)
EC50 [4]: > 350 µM (not active)
EC50 [6]: 4.6 µM (active)
AC50 [7]: 4.69 µM (active)

Fc1ccccc1CSc1ccc(-c2ccco2)nn1
IC50 [2]: 64.6 µM (inactive)

Cc1occc1C(=O)NCCCCc1ccccc1
AC50 [8]: 488 nM (active)

Cc1ccc(N/C=C/C(=O)c2cccs2)cc1C
IC50 [2]: > 100 µM (inactive)

S=C(Nc1ccc(Cl)cc1)NC1CC2CCC(C1)N2Cc1ccccc1 (configuration not stated)
CC50 [9]: > 40 µM (active)

CCCCC(=O)OCC(=O)N1N=C(c2c[nH]c3ccccc23)C(O)C1c1ccc(OC)cc1 (configuration not stated)
CC50 [9]: > 40 µM (active)

O=C(NC1=NCCS1)c1csc2ccccc12
AC50 [8]: 582 nM (active)
IC50 [10]: > 66 µM (inactive)
IC50 [11]: > 66 µM (inactive)

COc1ccc(C(=O)N(C)CCCC2CCCC2)cc1OC1CCN(C(C)C)CC1
IC50 [1]: 12 µM (active)

CCn1c(SCc2nc(-c3ccccc3)no2)nnc1-c1ccco1
IC50 [1]: 13.6 µM (active)

CC1(C)CC(NC(=O)CCC2CCCC2)CC(C)(C)N1
EC50 [3]: > 350 µM (not active)
EC50 [4]: > 350 µM (not active)

CCOC(=O)N1CCC(N2Cc3cccc(C(=O)Nc4ccc(N(CC)CC)cc4C)c3C2=O)CC1
CC50 [9]: > 40 µM (active)

Cc1cccc(C)c1NC(=O)c1ccc(CN2CCc3ccccc3C2)cc1
IC50 [1]: 18.2 µM (active)

CCCc1cc(O)c2c(C)cc(=O)oc2c1
IC50 [1]: 14.5 µM (active)

Cc1ccc(NC2CCCN(C(=O)c3ccc(C)c(N4CCNC4=O)c3)C2)cc1C (configuration not stated)
AC50 [8]: 3320 nM (active)

CN=C(S)N=CNOCc1c(Cl)cccc1Cl
CC50 [9]: > 40 µM (active)

O=C(NC(=S)Nc1ccccn1)c1cc(-c2ccccc2)nc2ccccc12
EC50 [3]: > 350 µM (not active)
EC50 [4]: 47.1 µM (active)

CCn1c(=O)c(CCC(=O)N2CCN(c3ccccn3)CC2)c(C)c2c(C)nn(-c3cccc(C)c3)c21
EC50 [5]: 1590 nM (active)
CC50 [9]: > 40 µM (active)
EC50 [6]: > 60 µM (not active)

c1ccc2c(c1)ncn2CCCOc1ccc2c(c1)CCC2
EC50 [12]: 22.4 µM (active)
EC50 [13]: > 150 µM (not active)
EC50 [14]: 30.5 µM (active)
EC50 [15]: 21.6 µM (active)
EC50 [16]: > 150 µM (not active)
AC50 [17]: 7.64 µM (active)

Cc1ccc(Oc2ncc(CN3CC(C)OC(C)C3)s2)cc1 (configuration not stated)
EC50 [3]: > 350 µM (not active)
EC50 [4]: > 350 µM (not active)

N#C/C=C\Oc1ccc(Cl)cc1N
CC50 [9]: > 40 µM (active)
IC50 [18]: 218 µM (active)

Cc1cc(C)c(NC(=O)c2ccc(CN3CCc4ccccc4C3)cc2)c(C)c1
IC50 [1]: 12.9 µM (active)

c1ccc(-c2noc(CSc3nc4ccccc4o3)n2)cc1
IC50 [2]: 75.7 µM (inactive)

COc1cc(C(=O)c2ccccc2)c(OC)cc1C(=O)Nc1ccc(O)cc1
AC50 [8]: 39 nM (active)

COc1cccc(OC)c1C(=O)N1CCN=C1SCc1cccnc1
AC50 [8]: 43 nM (active)

C[C@H]1CCC/C=C/[C@@H]2C[C@H](O)C[C@H]2[C@@H](O)/C=C/C(=O)O1
AC50 [19]: 2.17 µM (active)
AC50 [20]: 1.7 µM (active)

O=C(N/N=C\c1c(O)ccc2ccccc12)c1ccc(Cn2cccn2)o1
EC50 [3]: 82 µM (active)
EC50 [4]: > 350 µM (not active)
AC50 [17]: 1.23 µM (active)

C[C@@H]1CN([C@H](C)CO)C(=O)c2cccc(NC(=O)Nc3cccc4ccccc34)c2O[C@H]1CN(C)C(=O)Nc1ccc(C(F)(F)F)cc1
AC50 [21]: 14.6 µM (active)
AC50 [22]: 64.2 µM (active)

Cc1cccc(OCCNc2cc(N3CCN(C)CC3)ccc2[N+](=O)[O-])c1
EC50 [5]: 495 nM (active)
EC50 [14]: 19.8 µM (active)
EC50 [6]: > 60 µM (not active)
EC50 [15]: 86.1 µM (active)
AC50 [7]: 1.47 µM (active)

Cc1cccc(/C=N/n2c(S)nnc2-c2ccccc2)c1O
AC50 [8]: 3820 nM (active)
